Results taken from patent publication US20090176731A1 (priority 2005, published 2009).
Like-named read-outs stand apart in the source and are kept apart here.

Columns and labels:
range of models = conditions: once-daily oral administration; cited from earlier work
Calu-6 tumour xenograft = experiment: in vivo solid tumour model, Calu-6 tumour xenograft (WO 00/47212); conditions: once-daily oral, 28 days
HUVEC = HUVEC assay, endothelial cell proliferation (WO 00/47212); assay type: cell-based; conditions: Homo sapiens

## COc1cc2c(Oc3ccc4[nH]c(C)cc4c3F)ncnc2cc1OCCCN1CCCC1 [AZD2171, 4-(4-fluoro-2-methyl-1H-indol-5-yloxy)-6-methoxy-7-(3-(pyrrolidin-1-yl)propoxy)quinazoline]
Range of models
  anti-tumour activity in a range of models: broad-spectrum anti-tumour activity
Calu-6 tumour xenograft; 1.5 mg/kg/day, P<0.01
  inhibition of growth of Calu-6 tumour xenograft: 49%
Calu-6 tumour xenograft; 3 mg/kg/day, P<0.00001
  inhibition of growth of Calu-6 tumour xenograft: 69%
Calu-6 tumour xenograft; 6 mg/kg/day, P<0.00001
  inhibition of growth of Calu-6 tumour xenograft: 91%
HUVEC; HUVEC, basal (unstimulated) proliferation, read-out: IC50 for inhibition of basal endothelial cell proliferation
  IC50: > 500 nM
HUVEC; VEGF-stimulated, HUVEC assay, read-out: IC50 for inhibition of VEGF-stimulated endothelial cell proliferation
  IC50: 0.4 ± 0.2 nM
